Reference: PubChem BioAssay AID1259407 (Chemical Carcinogenesis Research Information System (CCRIS), 2018)
Active and inactive are the calls of the source. How the calls were made is not given here.

Tested on: CCRIS mutagenicity, Ames/micronucleus/aberration tests
Assay: CCRIS mutagenicity studies
[1] = Test System: AMES SALMONELLA TYPHIMURIUM, Strain/Indicator: TA102, Metabolic Activation: NONE, Method: STANDARD PLATE
[2] = Test System: AMES SALMONELLA TYPHIMURIUM, Strain/Indicator: TA98, Metabolic Activation: NONE, Method: PREINCUBATION
[3] = Test System: AMES SALMONELLA TYPHIMURIUM, Strain/Indicator: TA100, Metabolic Activation: NONE, Method: STANDARD PLATE

CCNc1nc(Cl)nc(NC(C)(C)C#N)n1
mutagenic call (End Point: In vitro chromosomal aberrations, Test System: Human lymphocytes, Metabolic Activation: None): inactive; negative for aberrations but cell cycle delay at 250 and 350 ug/ml doses | mutagenic call (End Point: In vitro chromosomal aberrations, Test System: Human lymphocytes, Metabolic Activation: Rat, liver, S-9, Aroclor 1254): inactive; negative | mutagenic call (Test System: Ames Salmonella typhimurium, Strain/Indicator: TA97a, Metabolic Activation: None, Method: Plate incorporation): inactive; negative, cytotoxicity at highest dose. | mutagenic call (Test System: Ames Salmonella typhimurium, Strain/Indicator: TA97a, Metabolic Activation: Rat, liver, S-9, Aroclor 1254, Method: Plate incorporation): inactive; negative, cytotoxicity at highest dose. | mutagenic call (Test System: Ames Salmonella typhimurium, Strain/Indicator: TA98, Metabolic Activation: None, Method: Plate incorporation): inactive; negative, cytotoxicity at highest dose. | mutagenic call (Test System: Ames Salmonella typhimurium, Strain/Indicator: TA98, Metabolic Activation: Rat, liver, S-9, Aroclor 1254, Method: Plate incorporation): inactive; negative, cytotoxicity at highest dose. | mutagenic call (Test System: Ames Salmonella typhimurium, Strain/Indicator: TA100, Metabolic Activation: None, Method: Plate incorporation): inactive; negative, cytotoxicity at highest dose. | mutagenic call (Test System: Ames Salmonella typhimurium, Strain/Indicator: TA100, Metabolic Activation: Rat, liver, S-9, Aroclor 1254, Method: Plate incorporation): inactive; negative, cytotoxicity at highest dose. | mutagenic call (Test System: Ames Salmonella typhimurium, Strain/Indicator: TA1535, Metabolic Activation: None, Method: Plate incorporation): inactive; negative, cytotoxicity at highest dose. | mutagenic call (Test System: Ames Salmonella typhimurium, Strain/Indicator: TA1535, Metabolic Activation: Rat, liver, S-9, Aroclor 1254, Method: Plate incorporation): inactive; negative, cytotoxicity at highest dose. | mutagenic call (Test System: UDS HUMAN PERIPHERAL BLOOD LYMPHOCYTES, Strain/Indicator: THY INCORP, Metabolic Activation: NONE, Method: LIQUID SCINTILLATION): inactive; negative | mutagenic call (Test System: UDS HUMAN PERIPHERAL BLOOD LYMPHOCYTES, Strain/Indicator: THY INCORP, Metabolic Activation: RAT, LIVER, S-9, PHENOBARBITAL AND BETA-NAPHTHOFLAVONE, Method: LIQUID SCINTILLATION): inactive; negative | mutagenic call (Test System: UDS rat primary hepatocytes, Strain/Indicator: Thymidine incorporation, Metabolic Activation: None, Method: Autoradiography): active; positive at >/= 1 um

O=C1NC(=O)C2CC=CCC12 (configuration not stated)
mutagenic call [1]: inactive; negative | mutagenic call (Test System: AMES SALMONELLA TYPHIMURIUM, Strain/Indicator: TA102, Metabolic Activation: RAT, LIVER, S-9, PHENOBARBITAL, Method: STANDARD PLATE): inactive; negative | mutagenic call (Test System: AMES SALMONELLA TYPHIMURIUM, Strain/Indicator: TA104, Metabolic Activation: NONE, Method: STANDARD PLATE): inactive; negative | mutagenic call (Test System: AMES SALMONELLA TYPHIMURIUM, Strain/Indicator: TA104, Metabolic Activation: RAT, LIVER, S-9, PHENOBARBITAL, Method: STANDARD PLATE): inactive; negative

CN(C)c1ncnc2nc[nH]c12
mutagenic call [2]: inactive; negative | mutagenic call (Test System: AMES SALMONELLA TYPHIMURIUM, Strain/Indicator: TA98, Metabolic Activation: RAT, LIVER, S9, Method: PREINCUBATION): inactive; negative | mutagenic call (Test System: AMES SALMONELLA TYPHIMURIUM, Strain/Indicator: TA100, Metabolic Activation: NONE, Method: PREINCUBATION): inactive; negative | mutagenic call (Test System: AMES SALMONELLA TYPHIMURIUM, Strain/Indicator: TA100, Metabolic Activation: RAT, LIVER, S9, Method: PREINCUBATION): inactive; negative | mutagenic call (Test System: AMES SALMONELLA TYPHIMURIUM, Strain/Indicator: TA1535, Metabolic Activation: NONE, Method: PREINCUBATION): active; positive | mutagenic call (Test System: AMES SALMONELLA TYPHIMURIUM, Strain/Indicator: TA1535, Metabolic Activation: RAT, LIVER, S9, Method: PREINCUBATION): active; positive | mutagenic call (Test System: AMES SALMONELLA TYPHIMURIUM, Strain/Indicator: TA1537, Metabolic Activation: NONE, Method: PREINCUBATION): inactive; negative | mutagenic call (Test System: AMES SALMONELLA TYPHIMURIUM, Strain/Indicator: TA1537, Metabolic Activation: RAT, LIVER, S9, Method: PREINCUBATION): inactive; negative | mutagenic call (Test System: E. COLI, Strain/Indicator: WP2UVRA, Metabolic Activation: NONE, Method: PREINCUBATION): inactive; negative | mutagenic call (Test System: E. COLI, Strain/Indicator: WP2UVRA, Metabolic Activation: RAT, LIVER, S9, Method: PREINCUBATION): inactive; negative

Cc1nc2c(c3[nH]c4ccccc4c13)C(=O)C(N1CCN(C)CC1)=CC2=O
mutagenic call (Test System: AMES SALMONELLA TYPHIMURIUM, Strain/Indicator: TA97, Metabolic Activation: NONE, Method: STANDARD PLATE): inactive; negative | mutagenic call (Test System: AMES SALMONELLA TYPHIMURIUM, Strain/Indicator: TA97, Metabolic Activation: RAT, LIVER, S-9, AROCLOR 1254, Method: STANDARD PLATE): inactive; negative | mutagenic call (Test System: AMES SALMONELLA TYPHIMURIUM, Strain/Indicator: TA98, Metabolic Activation: NONE, Method: STANDARD PLATE): inactive; negative | mutagenic call (Test System: AMES SALMONELLA TYPHIMURIUM, Strain/Indicator: TA98, Metabolic Activation: RAT, LIVER, S-9, AROCLOR 1254, Method: STANDARD PLATE): inactive; negative | mutagenic call [3]: active; positive | mutagenic call (Test System: AMES SALMONELLA TYPHIMURIUM, Strain/Indicator: TA100, Metabolic Activation: RAT, LIVER, S-9, AROCLOR 1254, Method: STANDARD PLATE): inactive; negative | mutagenic call [1]: inactive; negative | mutagenic call (Test System: AMES SALMONELLA TYPHIMURIUM, Strain/Indicator: TA102, Metabolic Activation: RAT, LIVER, S-9, AROCLOR 1254, Method: STANDARD PLATE): inactive; negative

NC(CO)C(=O)NNCc1ccc(O)c(O)c1O (configuration not stated)
mutagenic call [3]: active; positive | mutagenic call (Test System: AMES SALMONELLA TYPHIMURIUM, Strain/Indicator: TA100, Metabolic Activation: RAT, LIVER, S-9, PHENOBARBITAL, Method: STANDARD PLATE): active; positive | mutagenic call (Test System: UDS RAT HEPATOCYTES, Strain/Indicator: THY INCORP, Metabolic Activation: NONE, Method: AUTORADIOGRAPHY): inactive; negative

CC(=O)ON(C(C)=O)c1ccc(Oc2ccccc2)cc1
mutagenic call (Test System: AMES SALMONELLA TYPHIMURIUM, Strain/Indicator: TA100, Metabolic Activation: GUINEA PIG, LIVER, S-9, KANECLOR 500, Method: STANDARD PLATE): active; positive

O=C1OC2(c3cc(Br)c(O)c(Br)c3Oc3c2cc(Br)c(O)c3Br)c2c(Cl)ccc(Cl)c21
mutagenic call (End Point: IN VIVO MICRONUCLEUS, Test System: BONE MARROW POLYCHROMATIC ERYTHROCYTES, Species: MOUSE, Strain/Sex: DDY/MALE, Route: IP): inactive; negative

O=[N+]([O-])c1ccc2c(c1)C(O)c1ccccc1-2 (configuration not stated)
mutagenic call [2]: active; positive | mutagenic call (Test System: AMES SALMONELLA TYPHIMURIUM, Strain/Indicator: TA98, Metabolic Activation: S-9, Method: PREINCUBATION): active; positive
